Test results reported in patent US5756423A, “Method of controlling plants by inhibition of farnesyl pyrophosphate synthase” (Zeneca Limited, priority 1997, dated 1998).
Where two headings read alike, the source gives them in different places.

Experiments:
[1] = system: wild oat (Avena fatua) (AVEFA); assay: post-emergent herbicidal test, wild oat; type: in vivo; conditions: Avena fatua, post-emergence, read-out: AVEFA percent control; for pest or weed control at 4000 g/ha: 4.0 kg/ha
How it was run: (§1)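 Read-out is percent control, 0 (growth as untreated) to 100 (complete kill), covering emergence, stunting, malformation and chlorosis, scored 17–21 days post-spray. Application rates were 1 and 4 kg/ha to young greenhouse-grown seedlings.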

[2] = system: barnyard grass (Enchinochloa crusgalli) (ECHCG); assay: post-emergent herbicidal test, barnyard grass; type: in vivo; conditions: Echinochloa crus-galli, post-emergence, read-out: ECHCG percent control; for pest or weed control at 4000 g/ha: 4.0 kg/ha
How it was run: as §1

[3] = system: yellow nutsedge (Cyperus esculentus) (CYPES); assay: post-emergent herbicidal test, yellow nutsedge; type: in vivo; conditions: Cyperus, post-emergence, read-out: CYPES percent control; for pest or weed control at 4000 g/ha: 4.0 kg/ha
How it was run: as §1

[4] = system: green foxtail (Setaria viridis) (SETVI); assay: post-emergent herbicidal test, green foxtail; type: in vivo; conditions: Setaria viridis, post-emergence, read-out: SETVI percent control; for pest or weed control at 4000 g/ha: 4.0 kg/ha
How it was run: as §1

[5] = system: morningglory (Ipomoea spp.) (IPOSS); assay: post-emergent herbicidal test, morningglory; type: in vivo; conditions: Ipomoea, post-emergence, read-out: IPOSS percent control; for pest or weed control at 4000 g/ha: 4.0 kg/ha
How it was run: as §1

[6] = system: wild mustard (Brassica kaber), also known as Sinapis arvensis (SINAR); assay: post-emergent herbicidal test, wild mustard; type: in vivo; conditions: Brassica, post-emergence, read-out: SINAR percent control; for pest or weed control at 4000 g/ha: 4.0 kg/ha
How it was run: as §1

[7] = system: farnesyl pyrophosphate synthase in daffodil chromoplasts; assay: inhibition of farnesyl pyrophosphate synthase in daffodil chromoplasts (14C-isopentenyl pyrophosphate incorporation); type: biochemical, Narcissus pseudonarcissus; conditions: unit inferred, IC50 values in nM, read-out: IC50
How it was run: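 Daffodil chromoplasts in pH 7.7 sucrose/MgCl2/HEPES buffer with cysteine, NaF and BSA, started with ~3 micromolar 14C-isopentenyl pyrophosphate, 30 min at 30° C. Butanol-extractable radioactivity counted by scintillation; % residual activity calculated against zero-time and end-point no-inhibitor controls.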

[8] = system: velvetleaf (Abutilon theophrasti) (ABUTH); assay: post-emergent herbicidal test, velvetleaf; type: in vivo; conditions: Abutilon theophrasti, post-emergence, read-out: ABUTH percent control; for pest or weed control at 4000 g/ha: 4.0 kg/ha
How it was run: as §1

[9] = post-emergent, 17-21 days after application
[10] = post-emergent, 1.0 kg/ha (*), 17-21 days after application

Structure (SMILES)	IC50 ([7]; Table I)	IC50 ([7]; Table II)	pest or weed control at 1000 g/ha [1, 10]	pest or weed control at 1000 g/ha [2, 10]	pest or weed control at 1000 g/ha [3, 10]	pest or weed control at 1000 g/ha [4, 10]	pest or weed control at 1000 g/ha [5, 10]	pest or weed control at 1000 g/ha [6, 10]	pest or weed control at 1000 g/ha [8, 10]	other results
Cc1cccnc1NCC(P(=O)(O)O)P(=O)(O)O [Compound 31]	6600 nM	6600 nM								pest or weed control at 4000 g/ha [1, 9]: 0%; pest or weed control at 4000 g/ha [2, 9]: 0%; pest or weed control at 4000 g/ha [3, 9]: 0%; pest or weed control at 4000 g/ha [4, 9]: 0%; pest or weed control at 4000 g/ha [5, 9]: 0%; pest or weed control at 4000 g/ha [6, 9]: 0%; pest or weed control at 4000 g/ha [8, 9]: 0%
CCCN(C)CC(P(=O)(O)O)P(=O)(O)O [Compound 32]	27 nM	27 nM	100%	95%	25%	100%	85%	100%	75%	
CC(C)N(C)CC(P(=O)(O)O)P(=O)(O)O [Compound 33]	178 nM	178 nM	100%	100%	10%	95%	65%	100%	50%	
C=C(C)CNCC(P(=O)(O)O)P(=O)(O)O [Compound 34]	31 nM	31 nM	95%	95%	15%	95%	60%	100%	60%	
CC1CC(C)CN(CC(P(=O)(O)O)P(=O)(O)O)C1 (stereo not drawn) [Compound 35]	520 nM	520 nM	98%	15%	0%	50%	30%	25%	0%	
O=P(O)(O)C(CNNc1c(Cl)cc(C(F)(F)F)cc1Cl)P(=O)(O)O [Compound 36]	> 500000 nM	> 500000 nM								pest or weed control at 4000 g/ha [1, 9]: 0%; pest or weed control at 4000 g/ha [2, 9]: 0%; pest or weed control at 4000 g/ha [3, 9]: 0%; pest or weed control at 4000 g/ha [4, 9]: 0%; pest or weed control at 4000 g/ha [5, 9]: 0%; pest or weed control at 4000 g/ha [6, 9]: 0%; pest or weed control at 4000 g/ha [8, 9]: 0%
C=CCN(CC=C)CC(P(=O)(O)O)P(=O)(O)O [Compound 37]	53 nM	53 nM	95%	95%	10%	100%	15%	98%	10%	
O=P(O)(O)C(CNC1CC1)P(=O)(O)O [Compound 42]	27 nM	27 nM								pest or weed control at 1000 g/ha [1]: 100%; pest or weed control at 1000 g/ha [2]: 95%; pest or weed control at 1000 g/ha [3]: 20%; pest or weed control at 1000 g/ha [4]: 95%; pest or weed control at 1000 g/ha [5]: 90%; pest or weed control at 1000 g/ha [6]: 100%; pest or weed control at 1000 g/ha [8]: 10%

The next lines start with results.

IC50 ([7]; Table I)	IC50 ([7]; Table II)	Structure (SMILES)	pest or weed control at 1000 g/ha [1, 10]	pest or weed control at 1000 g/ha [2, 10]	pest or weed control at 1000 g/ha [3, 10]	pest or weed control at 1000 g/ha [4, 10]	pest or weed control at 1000 g/ha [5, 10]	pest or weed control at 1000 g/ha [6, 10]	pest or weed control at 1000 g/ha [8, 10]	other results
124 nM	124 nM	CCCN(CC)CC(P(=O)(O)O)P(=O)(O)O [Compound 38]	100%	100%	10%	100%	90%	100%	70%	
380 nM	380 nM	O=P(O)(O)C(CNCC(F)(F)F)P(=O)(O)O [Compound 39]	20%	0%	0%	5%	0%	0%	0%	
88 nM	88 nM	C=CCN(CC)CC(P(=O)(O)O)P(=O)(O)O [Compound 40]	85%	90%	10%	80%	10%	95%	10%	
60 nM	60 nM	C=CCN(C)CC(P(=O)(O)O)P(=O)(O)O [Compound 41]	100%	95%	60%	95%	85%	100%	85%	
93 nM	93 nM	CC1CCCN1CC(P(=O)(O)O)P(=O)(O)O (stereo not drawn) [Compound 43]	100%	98%	5%	98%	60%	100%	30%	
2510 nM	2510 nM	CC(NCC(P(=O)(O)O)P(=O)(O)O)c1ccc(F)cc1 (stereo not drawn) [Compound 44]	90%	100%	60%	100%	10%	90%	60%	
26 nM	26 nM	O=P(O)(O)C(CN1CC=CCC1)P(=O)(O)O [Compound 45]	100%	100%	50%	100%	100%	100%	90%	
440 nM	440 nM	O=P(O)(O)C(CNC1Cc2ccccc2C1)P(=O)(O)O [Compound 46]	50%	15%	10%	20%	0%	5%	5%	
2280 nM	2280 nM	CC1(C)CCCN(CC(P(=O)(O)O)P(=O)(O)O)C1 [Compound 47]	0%	0%	0%	10%	0%	5%	0%	
32 nM	32 nM	CCC(C)NCC(P(=O)(O)O)P(=O)(O)O (stereo not drawn) [Compound 48]	100%	98%	50%	95%	95%	100%	60%	
1730 nM	1730 nM	O=P(O)(O)C(CNC1CCc2ccccc21)P(=O)(O)O (stereo not drawn) [Compound 49]	60%	50%	10%	15%	10%	10%	5%	
232 nM	232 nM	CC1CCCC1NCC(P(=O)(O)O)P(=O)(O)O (stereo not drawn) [Compound 50]	50%	60%	5%	85%	5%	85%	5%	
